In patent publication US7485327B2, “Composition comprising Melissa leaf extract for anti-angiogenic and matrix metalloproteinase inhibitory activity” (AngioLab, Inc., priority 2001, dated 2009):

System: B16BL6 cells
Experiment: Cancer metastasis: B16BL6 melanoma colonies in lung
Format: in vivo, C57BL/6 male mouse
Method: B16BL6 cells (5×10^4) were injected into C57BL/6 male mouse of 6 to 7 weeks old through the tail vein. After that, 0.2 ml of water or drug combinations was daily given to mice by oral administration for 3 weeks. Three weeks after injection, the mice were sacrificed and the number of tumor colonies on the surface of lungs was counted under microscope. The average number of melanoma colonies in lungs from mice of treated group was less than that from control mice.

In the case of `Clc1ccccc1CN1CCc2sccc2C1` [Ticlopidine, ticlopidine], the “Inhibition (%) of metastasis” value (oral daily for 3 weeks) is reported as 38% and the Colonies in lung (oral daily for 3 weeks after tail vein injection of B16BL6 cells) is reported as 83 ± 20.
